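Briefly, cells in 96-well plates were exposed to five compound concentrations for 48 h, and endpoints were estimated by linear interpolation. GI50 is the concentration that inhibits growth by half.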 Active and inactive are the calls of the source. Rule as the data show it: active = GI50 up to about 1.1 µM and inactive = higher.
Legend:
Assay in all cases: DTP human tumour cell line panel, 48 h
[1] = system: A498
[2] = system: SF-539
[3] = system: Hs-578T
[4] = system: SK-MEL-2
[5] = system: Malme-3M
[6] = system: HCT-116
[7] = system: HCT-15
[8] = system: HT-29
[9] = system: U-251
[10] = system: SK-MEL-28
[11] = system: SK-MEL-5
[12] = system: SW-620
[13] = system: NCI-H522
[14] = system: NCI/ADR-RES
[15] = system: UACC-62
[16] = system: M14
[17] = system: HOP-62
[18] = system: OVCAR-3
[19] = system: NCI-H23
[20] = system: HCC 2998

Measured: GI50

CCCCCCCCCCCCCCCCCCOc1ccc(/C=C/C2=[N+](CCCl)CCO2)cc1
active: [13] 0.796 µM
inactive: [1] > 100 µM | [2] > 100 µM | [3] > 100 µM | [4] > 100 µM | [5] > 100 µM | [6] > 100 µM | [8] > 100 µM | [9] 50.4 µM | [10] > 100 µM | [11] > 100 µM | [12] > 100 µM | [14] > 100 µM | [15] > 100 µM | [16] > 100 µM | [17] > 100 µM | [18] > 100 µM
> 100 µM: [7]

CC(C)CC(NC=O)C(=O)NC(Cc1ccccc1)NC(=O)CNC(=O)C(C)NC(=O)C(N)Cc1ccc(O)cc1 (stereo unspecified)
> 100 µM: [7]
inactive: [1] 64.6 µM | [2] > 100 µM | [3] > 100 µM | [6] > 100 µM | [19] > 100 µM | [8] > 100 µM | [9] > 100 µM | [10] > 100 µM | [11] > 100 µM | [12] > 100 µM | [13] > 100 µM | [14] > 100 µM | [15] > 100 µM | [16] > 100 µM | [17] > 100 µM | [18] > 100 µM

O=C(CON1C(=O)c2ccccc2C1=O)c1ccccc1
inactive: [1] > 100 µM | [2] 37.5 µM | [3] > 100 µM | [4] > 100 µM | [5] 21.1 µM | [6] 36.2 µM | [19] > 100 µM | [8] 48.3 µM | [9] > 100 µM | [10] > 100 µM | [11] > 100 µM | [12] 24.3 µM | [13] 17.7 µM | [14] > 100 µM | [15] > 100 µM | [16] 57.1 µM | [17] > 100 µM | [18] 49.9 µM
> 100 µM: [7]

O=c1[nH]c2ccc(CC(=S)N3CCN(c4ccccc4)CC3)cc2s1
inactive: [1] 62.2 µM | [2] 28 µM | [3] 13.8 µM | [4] 82.2 µM | [5] 13.5 µM | [6] 33.9 µM | [19] 20.7 µM | [8] 51.8 µM | [9] 3.95 µM | [10] > 100 µM | [12] 71.9 µM | [14] 13.2 µM | [15] 62.7 µM | [16] 23.1 µM | [17] 16.6 µM | [18] 23.4 µM
42.2 µM: [7]

CC(=O)N1c2ccccc2[C@H]2CCc3c([nH]c4ccccc34)[C@H]21
11.3 µM: [7]
inactive: [1] 17.5 µM | [2] 11.8 µM | [3] 21.9 µM | [4] 19.2 µM | [5] 14.1 µM | [6] 3.07 µM | [19] 9.53 µM | [8] 8.11 µM | [9] 12.7 µM | [10] 14.7 µM | [11] 12.9 µM | [12] 12 µM | [13] 20.4 µM | [14] 23.3 µM | [15] 12.3 µM | [16] 14.3 µM | [17] 12.6 µM | [18] 15.4 µM

COc1nncc2[nH]c(-c3ccccc3)cc12
inactive: [1] 22.3 µM | [20] > 100 µM | [2] > 100 µM | [3] 44 µM | [4] 33.9 µM | [5] > 100 µM | [6] 50.8 µM | [19] > 100 µM | [8] > 100 µM | [9] 49 µM | [11] 67.8 µM | [12] > 100 µM | [14] 76.2 µM | [15] 42.3 µM | [16] 86.7 µM | [17] > 100 µM | [18] 83.2 µM
53 µM: [7]

Cc1[nH]n(-c2nc(O)c(-c3ccccc3)c(=O)[nH]2)c(=O)c1CCO
> 100 µM: [7]
inactive: [1] > 100 µM | [2] > 100 µM | [3] > 100 µM | [4] > 100 µM | [5] > 100 µM | [6] > 100 µM | [19] > 100 µM | [8] > 100 µM | [9] > 100 µM | [10] > 100 µM | [11] > 100 µM | [12] > 100 µM | [13] > 100 µM | [14] > 100 µM | [15] > 100 µM | [16] > 100 µM

O=CC(O)C(O)C(O)C(O)COC(=O)NCCCCC(=O)C(F)(F)C(F)(F)C(F)(F)C(F)(F)C(F)(F)C(F)(F)C(F)(F)F (stereo unspecified)
inactive: [1] 20.7 µM | [20] 24.5 µM | [2] 19.8 µM | [3] 22.4 µM | [4] 27.6 µM | [5] > 100 µM | [6] 18 µM | [19] 32.9 µM | [8] 32.7 µM | [9] > 10 µM | [10] 43.7 µM | [11] 23.7 µM | [12] 19.9 µM | [14] > 100 µM | [15] 15.9 µM | [16] 23.7 µM | [17] 23.6 µM | [18] 47 µM
50.2 µM: [7]

O=C(O)CCC(c1ccccc1)(c1ccccc1)c1ccccc1
29.2 µM: [7]
inactive: [1] 41.4 µM | [20] 32.4 µM | [2] 33.3 µM | [3] 29.9 µM | [4] 22.9 µM | [5] > 100 µM | [19] 34.4 µM | [8] 36.1 µM | [9] 39 µM | [10] 50.5 µM | [11] 32 µM | [12] 39.8 µM | [14] 36.5 µM | [15] 27.4 µM | [16] 33 µM | [17] 34.8 µM | [18] 14.7 µM

Cc1c2cccc-2ccc2c1[nH]c1ccccc12
2.58 µM: [7]
inactive: [1] 13.6 µM | [2] 1.81 µM | [3] 2.34 µM | [4] 1.8 µM | [5] 1.89 µM | [6] 2.12 µM | [19] 2.77 µM | [8] 3.78 µM | [9] 1.66 µM | [10] 1.75 µM | [11] 1.79 µM | [12] 2.36 µM | [13] 1.93 µM | [14] 3.34 µM | [15] 1.91 µM | [16] 1.73 µM | [17] 3.49 µM | [18] 2.47 µM

COc1cc2c(cc1O)CCN[C@@]21CS[C@H]2c3c(OC(C)=O)c(C)c4c(c3C(COC1=O)N1C2C2NC(Cc3cc(C)c(OC)c(O)c32)[C@@H]1O)OCO4 (stereo partly specified)
active: [1] < 0.01 µM | [2] < 0.01 µM | [3] < 0.01 µM | [4] < 0.01 µM | [6] < 0.01 µM | [19] < 0.01 µM | [8] < 0.01 µM | [9] < 0.01 µM | [10] < 0.01 µM | [11] < 0.01 µM | [12] < 0.01 µM | [13] < 0.01 µM | [14] < 0.01 µM | [16] < 0.01 µM | [17] < 0.01 µM

From ChEMBL document CHEMBL1201862, “PubChem BioAssay data set” (2004)
